Results as given in patent US9409884B2 (Rigel Pharmaceuticals, Inc., priority 2012, dated 2016).

These compounds were tested against AMPK (assay: AMPK activation, enzyme-linked immunosorbent assay). Conditions: Table 8, compounds of Table 1.
Assay type: biochemical
Summary of the method: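 Read-out: ELISA, used to detect compound-driven activation of AMPK.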

| EC50 | Compound |
| --- | --- |
| < 100 nM | O=C(NC1CCN(Cc2ccc(OC(F)(F)F)cc2)CC1)c1cc2cc(O[C@@H]3CCN(Cc4ccc(OC(F)(F)F)cc4)C[C@H]3F)ccc2o1 [Compound 1-173, 5-((3,4-trans)-3-fluoro-1-(4-(trifluoromethoxy)benzyl)piperidin-4-yloxy)-N-(1-(4-(trifluoromethoxy)benzyl)piperidin-4-yl)benzofuran-2-carboxamide] |
| 1000 to 5000 nM | O=C(NC1CCN(Cc2ccccc2)CC1)c1ccc(OC2CCN(c3ccc(C(F)(F)F)cc3)CC2)cn1 [Compound 1-38, N-(1-benzylpiperidin-4-yl)-5-(1-(4-(trifluoromethyl)phenyl)piperidin-4-yloxy)picolinamide] |
| 100 to 500 nM | CN(C(=O)c1cc2cc(OC3CCN(c4ccc(C(F)(F)F)cc4)CC3)ccc2o1)C1CCN(Cc2ccccc2C#N)CC1 [Compound 1-111, N-(1-(2-cyanobenzyl)piperidin-4-yl)-N-methyl-5-(1-(4-(trifluoromethyl)phenyl)piperidin-4-yloxy)benzofuran-2-carboxamide] |
| < 100 nM | N#Cc1ccc(CN2CCC(Oc3ccc4oc(C(=O)NC5CCN(Cc6ccccc6)CC5)cc4c3)CC2)cc1 [Compound 1-70, N-(1-benzylpiperidin-4-yl)-5-(1-(4-cyanobenzyl)piperidin-4-yloxy)benzofuran-2-carboxamide] |

Same assay, conditions: Table 9, compounds of Table 2

| EC50 | Compound |
| --- | --- |
| 10000 to 50000 nM | Cn1cnc(CN2CCC(NC(=O)c3ccc4[nH]c5c(c4c3)CN(Cc3ccc(C(F)(F)F)cc3)CC5)CC2)c1 [Compound 2-53, N-(1-((1-methyl-1H-imidazol-4-yl)methyl)piperidin-4-yl)-2-(4-(trifluoromethyl)benzyl)-2,3,4,5-tetrahydro-1H-pyrido[4,3-b]indole-8-carboxamide] |
| 10000 to 50000 nM | N#Cc1ccc(CN2CCC(NC(=O)c3ccc4[nH]c5c(c4c3)CN(Cc3ccc(C(N)=O)cc3)CC5)CC2)cc1 [Compound 2-44, 2-(4-carbamoylbenzyl)-N-(1-(4-cyanobenzyl)piperidin-4-yl)-2,3,4,5-tetrahydro-1H-pyrido[4,3-b]indole-8-carboxamide] |
| > 100000 nM | NC(=O)c1ccc(CN2CCc3[nH]c4ccc(C(=O)NC5CCN(C(=O)c6ccncc6)CC5)cc4c3C2)cc1 [Compound 2-46, 2-(4-carbamoylbenzyl)-N-(1-isonicotinoylpiperidin-4-yl)-2,3,4,5-tetrahydro-1H-pyrido[4,3-b]indole-8-carboxamide] |
| 500 to 1000 nM | O=C(NC1CCN(Cc2ccc(C(F)(F)F)cc2)CC1)c1ccc2[nH]c3c(c2c1)CN(Cc1ccc(F)cc1)CC3 [Compound 2-10, N-(1-(4-trifluoromethylbenzyl)piperidin-4-yl)-2-(4-fluorobenzyl)-2,3,4,5-tetrahydro-1H-pyrido[4,3-b]indole-8-carboxamide] |
| 10000 to 50000 nM | N#Cc1ccc(CN2CCC(NC(=O)c3ccc4[nH]c5c(c4c3)CN(S(=O)(=O)c3cccnc3)CC5)CC2)cc1 [Compound 2-26, N-(1-(4-cyanobenzyl)piperidin-4-yl)-2-(pyridin-3-ylsulfonyl)-2,3,4,5-tetrahydro-1H-pyrido[4,3-b]indole-8-carboxamide] |
| 1000 to 5000 nM | N#Cc1ccc(NC(=O)N2CCC(NC(=O)c3ccc4[nH]c5c(c4c3)CN(Cc3ccc(C(F)(F)F)cc3)CC5)CC2)cc1 [Compound 2-27, N-(1-(4-cyanophenylcarbamoyl)piperidin-4-yl)-2-(4-(trifluoromethyl)benzyl)-2,3,4,5-tetrahydro-1H-pyrido[4,3-b]indole-8-carboxamide] |

Same assay, conditions: Table 10, compounds of Table 3

| EC50 | Compound |
| --- | --- |
| < 100 nM | O=C(NC1CCN(Cc2ccncc2)CC1)c1nc2ccc(OC3CCN(c4ccc(C(F)(F)F)cc4)CC3)cc2o1 [Compound 3-3, N-(1-(pyridin-4-ylmethyl)piperidin-4-yl)-6-(1-(4-(trifluoromethyl)phenyl)piperidin-4-yloxy)benzo[d]oxazole-2-carboxamide] |

Same assay, conditions: Table 11, compounds of Table 4

| EC50 | Compound |
| --- | --- |
| < 500 nM | N#Cc1ccc(CN2CCC(NC(=O)c3ccc(C(=O)N4CCN(c5ccc(C(=O)C6CC6)cc5)CC4)nc3)[C@H](F)C2)cc1 (stereo partly drawn) [Compound 4-12, N-((3,4-trans)-1-(4-cyanobenzyl)-3-fluoropiperidin-4-yl)-6-(4-(4-(cyclopropanecarbonyl)phenyl)piperazine-1-carbonyl)nicotinamide] |

Same assay, conditions: Table 12, compounds of Table 5

| EC50 | Compound |
| --- | --- |
| < 1000 nM | N#Cc1ccc(CN2CCC(NC(=O)c3cccc(OC4CCN(Cc5ccc(-c6ccccn6)cc5)CC4)c3)CC2)cc1 [Compound 5-118, N-(1-(4-cyanobenzyl)piperidin-4-yl)-3-(1-(4-(pyridin-2-yl)benzyl)piperidin-4-yloxy)benzamide] |
| < 1000 nM | N#Cc1ccc(CN2CCC(NC(=O)c3cccc(OC4CCN(Cc5ccc(N6CCCC6)cc5)CC4)c3)CC2)cc1 [Compound 5-116, N-(1-(4-cyanobenzyl)piperidin-4-yl)-3-(1-(4-(pyrrolidin-1-yl)benzyl)piperidin-4-yloxy)benzamide] |
| < 1000 nM | O=C(NC1CCN(Cc2ccccc2)CC1)c1cccc(OC2CCN(c3ccc(C(F)(F)F)cc3)CC2)c1 [Compound 5-46, N-(1-benzylpiperidin-4-yl)-3-(1-(4-(trifluoromethyl)phenyl)piperidin-4-yloxy)benzamide] |
| < 1000 nM | Cc1ccc(CN2CCC(Oc3ccc(C(=O)NC4CCN(Cc5ccc(Cl)cc5)CC4)cc3F)CC2)cc1 [Compound 5-73, N-(1-(4-chlorobenzyl)piperidin-4-yl)-3-fluoro-4-(1-(4-methylbenzyl)piperidin-4-yloxy)benzamide] |
| < 1000 nM | N#Cc1ccc(CN2CCC(Oc3ccc(C(=O)NC4CCN(Cc5ccccc5)CC4)cc3Cl)CC2)cc1 [Compound 5-67, N-(1-benzylpiperidin-4-yl)-3-chloro-4-(1-(4-cyanobenzyl)piperidin-4-yloxy)benzamide] |
| 1000 to 10000 nM | COc1ccc(CN2CCC(NC(=O)c3cccc(OC4CCN(Cc5cnn(-c6ccccn6)c5)CC4)c3)CC2)cc1 [Compound 5-114, N-(1-(4-methoxybenzyl)piperidin-4-yl)-3-(1-((1-(pyridin-2-yl)-1H-pyrazol-4-yl)methyl)piperidin-4-yloxy)benzamide] |
| < 1000 nM | COc1ccc(CN2CCC(NC(=O)c3cccc(OC4CCN(Cc5ccc(-c6ccccn6)cc5)CC4)c3)CC2)cc1 [Compound 5-106, N-(1-(4-methoxybenzyl)piperidin-4-yl)-3-(1-(4-(pyridin-2-yl)benzyl)piperidin-4-yloxy)benzamide] |

Same assay, conditions: Table 13, compounds of Table 6

| EC50 | Compound |
| --- | --- |
| < 100 nM | COc1ccc(CN2CCC(NC(=O)c3cc4cc(C(=O)N5CCN(Cc6ccc(S(=O)(=O)C(F)(F)F)cc6)CC5)ccc4o3)CC2)cc1F [Compound 6-134, N-(1-(3-fluoro-4-methoxybenzyl)piperidin-4-yl)-5-(4-(4-(trifluoromethylsulfonyl)benzyl)piperazine-1-carbonyl)benzofuran-2-carboxamide] |
| < 100 nM | N#Cc1ccc(CN2CCC(NC(=O)c3cc4cc(C(=O)N5CCN(Cc6ccc(S(=O)(=O)C7CC7)cc6)CC5)ccc4o3)CC2)cc1 [Compound 6-104, N-(1-(4-cyanobenzyl)piperidin-4-yl)-5-(4-(4-(cyclopropylsulfonyl)benzyI)piperazine-1-carbonyl) benzofuran-2-carboxamide] |
| < 100 nM | CS(=O)(=O)c1ccc(CN2CCN(C(=O)c3ccc4cc(C(=O)NC5CCN(Cc6ccc(OC(F)(F)C(F)F)cc6)CC5)oc4c3)CC2)cc1 [Compound 6-7, 6-(4-(4-(methylsulfonyl)benzyl)piperazine-1-carbonyl)-N-(1-(4-(1,1,2,2-tetrafluoroethoxy)benzyl)piperidin-4-yl)benzofuran-2-carboxamide] |
| < 100 nM | COc1ccc(CN2CCC(NC(=O)c3cc4cc(C(=O)N5CCN(Cc6ccc(S(C)(=O)=O)cc6)CC5)ccc4o3)CC2)cc1F [Compound 6-154, N-(1-(3-fluoro-4-methoxybenzyl)piperidin-4-yl)-5-(4-(4-(methylsulfonyl)benzyl)piperazine-1-carbonyl) benzofuran-2-carboxamide] |
| < 100 nM | O=C(NC1CCN(Cc2ccc(OC(F)(F)F)cc2)CC1)c1cc2cc(C(=O)N3CCN(Cc4ccc(-n5cccn5)cc4)CC3)ccc2o1 [Compound 6-97, 5-(4-(4-(1H-pyrazol-1-yl)benzyl)piperazine-1-carbonyl)-N-(1-(4-(trifluoromcthoxy)benzyl)piperidin-4-yl)benzofuran-2-carboxamide] |
| < 100 nM | N#Cc1ccc(CN2CCC(NC(=O)c3cc4cc(NC(=O)C5CCN(c6ccc(C#N)cc6)CC5)ccc4o3)CC2)cc1 [Compound 6-76, N-(2-(1-(4-cyanobenzyl)piperidin-4-ylcarbamoyl)benzofuran-5-yl)-1-(4-cyanophenyl)piperidine-4-carboxamide] |

Same assay, conditions: Table 14, compounds of Table 7

| EC50 | Compound |
| --- | --- |
| < 1000 nM | CC(C)S(=O)(=O)c1ccc(N2CCN(C(=O)c3ccc(C(=O)Nc4ccc(Oc5ccc(S(F)(F)(F)(F)F)cc5)nc4)nc3)CC2)cc1 [Compound 7-6, 5-(4-(4-(isopropylsulfonyl)phenyl)piperazine-1-carbonyl)-N-(6-(4-(pentafluorosulfanyl)phenoxy)pyridin-3-yl)picolinamide] |
| 50000 to 100000 nM | COc1ccc(C(=O)C2CCN(C(=O)c3ccc(C(=O)NC4CCNCC4)cn3)CC2)cc1 [Compound 7-115, 6-(4-(4-methoxybenzoyl)piperidine-1-carbonyl)-N-(piperidin-4-yl)nicotinamide] |
| 1000 to 10000 nM | COc1ccc(C(=O)C2CCN(C(=O)c3ccc(C(=O)NC4CCN(Cc5ccc(F)c(OC)c5)CC4(C)C)cn3)CC2)cc1 (stereo not drawn) [Compound 7-87, N-(1-(4-fluoro-3-methoxybenzyl)-3,3-dimethylpiperidin-4-yl)-6-(4-(4-methoxybenzoyl)piperidine-1-carbonyl)nicotinamide] |
| < 1000 nM | N#Cc1ccc(OC2CCN(C(=O)c3ccc(C(=O)NC4CCN(Cc5ccc(OC(F)(F)F)cc5)CC4F)cn3)CC2)cc1 (stereo not drawn) [Compound 7-62, 6-(4-(4-cyanophenoxy)piperidine-1-carbonyl)-N-((3,4-trans)-3-fluoro-1-(4-(trifluoromethoxy)benzyl)piperidin-4-yl)nicotinamide] |
| < 1000 nM | N#Cc1ccc(CN2CCC(NC(=O)c3ccc(C(=O)N4CCC(Oc5ccc(S(=O)(=O)C(F)(F)F)cc5)CC4)nc3)CC2)cc1 [Compound 7-118, N-(1-(4-cyanobenzyl)piperidin-4-yl)-6-(4-(4-(trifluoromethylsulfonyl)phenoxy)piperidine-1-carbonyl)nicotinamide] |
